Assay results: patent US20240294551A1 (AMGEN INC., priority 2022, published 2024)
Read-outs that look alike come from different tables or passages of the source.

Tests used:
[1] = system: Phosphorylation of ERK1/2 in AsPC-1 cells; assay: Phospho-ERK1/2 MSD Assay; type: cell-based, human; conditions: read-out: 2 h p-ERK (AsPC-1 cells), IC50
Method: AsPC-1 (ATCC® CRL-1682™) cells were cultured in RPMI 1640 Medium (ThermoFisher Scientific 11875093) containing 10% fetal bovine serum (ThermoFisher Scientific 16000044) and 1× penicillin-streptomycin-glutamine (ThermoFisher Scientific 10378016). Sixteen hours prior to compound treatment, AsPC-1 cells were seeded in 96-well cell culture plates at a density of 25,000 cells/well and incubated at 37° C., 5% CO2. A compound dose-response titration was diluted in growth media, added to appropriate wells of a cell culture plate, and then incubated at 37° C., 5% CO2 for 2 hours. Following compound treatment, cells were washed with ice-cold Dulbecco's phosphate-buffered saline, no Ca^2+ or Mg^2+ (ThermoFisher Scientific 14190144), and then lysed in RIPA buffer (50 mM Tris-HCl pH 7.5, 1% Igepal, 0.5% sodium deoxycholate, 150 mM NaCl, and 0.5% sodium dodecyl sulfate) containing protease inhibitors (Roche 4693132001) and phosphatase inhibitors (Roche 4906837001). Phosphorylation of ERK1/2 in compound-treated lysates was assayed using Phospho-ERK1/2 Whole Cell Lysate kits (Meso Scale Discovery K151DWD) according to the manufacturer's protocol. Assay plates were read on a Meso Scale Discovery Sector Imager 6000, and data were analyzed using a 4-parameter logistic model to calculate IC50 values.

[2] = biological target: GDP-bound KRAS protein (aa 1-169), containing both G12D and C118A amino acid substitutions (Homo sapiens (Human), UniProt P01116, C118A/G12D); assay: KRAS G12D Coupled Nucleotide Exchange Assay; type: biochemical; conditions: read-out: KRAS G12D Coupled Exchange IC50
[3] = biological target: His-tagged KRAS G12D protein (Homo sapiens (Human), UniProt P01116, G12D); assay: KRAS G12D TR-FRET Assay; type: binding; conditions: read-out: KRAS G12D Binding IC50
Method in brief: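 Each incubation ran at room temperature: enzyme with compound for 30 minutes, peptide for one hour, and detection reagents (0.4 nM europium anti-6×His, 5 nM streptavidin-d2) for one hour more. Protein and peptide stocks were each diluted to 20 nM before addition.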

Sequence of GDP-bound KRAS protein (aa 1-169), containing both G12D and C118A amino acid substitutions (P01116 other isoform, or with tags, fused parts or gaps G12D/C118A): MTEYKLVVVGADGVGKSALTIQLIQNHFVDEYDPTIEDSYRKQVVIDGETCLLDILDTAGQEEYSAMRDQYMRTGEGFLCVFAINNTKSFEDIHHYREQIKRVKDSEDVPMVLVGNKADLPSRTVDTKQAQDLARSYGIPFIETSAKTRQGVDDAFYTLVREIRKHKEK
Sequence of His-tagged KRAS G12D protein (P01116 other isoform, or with tags, fused parts or gaps G12D): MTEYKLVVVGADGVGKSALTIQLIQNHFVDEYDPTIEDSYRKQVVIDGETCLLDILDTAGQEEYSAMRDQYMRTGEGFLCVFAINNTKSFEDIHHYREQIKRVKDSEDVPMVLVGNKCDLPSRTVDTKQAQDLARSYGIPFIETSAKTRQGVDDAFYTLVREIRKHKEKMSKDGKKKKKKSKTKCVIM

Row | Compound | IC50 ([1]; Homo sapiens, ASPC1, 2 h) | IC50 [2] | IC50 [3] | IC50 ([1]; 2 h)
1 | Cc1cc2[nH]ncc2c2c1CCC[C@H](F)C(=O)N[C@@H]1CCCN(C1)c1nc(OC[C@@]34CCCN3C[C@H](F)C4)nc3c(F)c-2ncc13 (mixture of isomers) [Example 49, (17R)-14,30-difluoro-24-(((2R,7aS)-2-fluorotetrahydro-1H-pyrrolo[1,2-a]pyrrol-7a(5H)-yl)methoxy)-9-methyl-5,6,16,21,23,25,29-heptaazahexacyclo[24.3.1.1~17,21~.0~2,10~.0~3,7~.0~22,27~]hentriaconta-1(30),2,4,7,9,22,24,26,28-nonaen-15-one] | 116 nM | 5 nM | 7 nM | –
2 | C[C@]12C[C@]3(CN(CCO3)c3nc(OC[C@@]45CCCN4C[C@H](F)C5)nc4c(F)c(ncc34)-c3c(c(Cl)cc4[nH]ncc34)CCOC(=O)O1)C2 [Example 322, (1S,3S)-10-chloro-32-fluoro-24-(((2R,7aS)-2-fluorotetrahydro-1H-pyrrolo[1,2-a]pyrrol-7a(5H)-yl)methoxy)-3-methyl-4,6,30-trioxa-13,14,19,23,25,27-hexaazaheptacyclo[25.3.1.1~1,3~.1~18,22~.0~9,17~.0~12,16~.0~21,26~]tritriaconta-9,11,14,16,18(32),19,21,23,25-nonaen-5-one] | 589 nM | 156 nM | 366 nM | –
3 | Cc1cc2[nH]ncc2c2c1CCCC(F)C(=O)N[C@@H]1CCCCN(C1)c1nc(OC[C@@]34CCCN3C[C@H](F)C4)nc3c(F)c-2ncc13 (single isomer, unassigned) [Example 159] | 79.6 nM | 5 nM | 6 nM | –
4 | O=C1COCCc2c(Cl)cc3[nH]ncc3c2-c2ncc3c(nc(OC[C@@]45CCCN4C[C@H](F)C5)nc3c2F)N2CCCC[C@H](C2)N1 [Example 271, (26R)-18-chloro-32-fluoro-4-(((2R,7aS)-2-fluorotetrahydro-1H-pyrrolo[1,2-a]pyrrol-7a(5H)-yl)methoxy)-22-oxa-1,3,5,9,14,15,25-heptaazahexacyclo[24.4.1.1~6,10~.0~2,7~.0~11,19~.0~12,16~]dotriaconta-2,4,6,8,10(32),11,13,16,18-nonaen-24-one] | 500 nM | 2 nM | 13 nM | –
5 | O=C1OCCc2cccc3cccc(c23)-c2ncc3c(nc(OC[C@@]45CCCN4C[C@H](F)C5)nc3c2F)N2CCOC[C@H](C2)O1 [Example 201, (16S)-32-fluoro-8-(((2R,7aS)-2-fluorotetrahydro-1H-pyrrolo[1,2-a]pyrrol-7a(5H)-yl)methoxy)-14,17,19-trioxa-3,7,9,11-tetraazahexacyclo[20.7.1.1~2,6~.1~11,16~.0~5,10~.0~26,30~]dotriaconta-1(29),2(32),3,5,7,9,22,24,26(30),27-decaen-18-one] | 171 nM | 8 nM | 9 nM | –
6 | CN1C(=O)OCCCc2c(Cl)cc3[nH]ncc3c2-c2ncc3c(nc(OC[C@@]45CCCN4C[C@H](F)C5)nc3c2F)N2C[C@@H](O)C[C@@H]1C2 [Example 286, (17R,19S)-9-chloro-30-fluoro-24-(((2R,7aS)-2-fluorotetrahydro-1H-pyrrolo[1,2-a]pyrrol-7a(5H)-yl)methoxy)-19-hydroxy-16-methyl-14-oxa-5,6,16,21,23,25,29-heptaazahexacyclo[24.3.1.1~17,21~.0~2,10~.0~3,7~.0~22,27~]hentriaconta-1(30),2,4,7,9,22,24,26,28-nonaen-15-one] | 1250 nM | 15 nM | 81 nM | –
7 | O=C1OC/C=C/c2c(Cl)cc3[nH]ncc3c2-c2ncc3c(nc(OC[C@@]45CCCN4C[C@H](F)C5)nc3c2F)N2CCC[C@H](C2)O1 (single isomer, unassigned) [Example 116] | 270 nM | 12 nM | 17 nM | –
8 | O=C1CC2CCCN(C2)c2nc(OC[C@@]34CCCN3C[C@H](F)C4)nc3c(F)c(ncc23)-c2cccc3cccc(c23)CCO1 (stereo partly drawn) [Example 88] | 1580 nM | 11 nM | 19 nM | –
9 | C[C@H]1CCOC[C@H]2CN(CCO2)c2nc(OC[C@@]34CCCN3C[C@H](F)C4)nc3c(F)c(ncc23)-c2c(c(Cl)cc3[nH]ncc23)C1 [Example 252, (12R,17R)-9-chloro-30-fluoro-24-(((2R,7aS)-2-fluorotetrahydro-1H-pyrrolo[1,2-a]pyrrol-7a(5H)-yl)methoxy)-12-methyl-15,18-dioxa-5,6,21,23,25,29-hexaazahexacyclo[24.3.1.1~17,21~.0~2,10~.0~3,7~.0~22,27~]hentriaconta-1(30),2,4,7,9,22,24,26,28-nonaene] | 926 nM | 17 nM | 28 nM | –
10 | O=C1N[C@H]2CC[C@@H](O)CN(C2)c2nc(OC[C@@]34CCCN3C[C@H](F)C4)nc3c(F)c(ncc23)-c2c(c(Cl)cc3[nH]ncc23)CCCO1 (racemic) [Example 283, (26S,29R)-18-chloro-32-fluoro-4-(((2R,7aS)-2-fluorotetrahydro-1H-pyrrolo[1,2-a]pyrrol-7a(5H)-yl)methoxy)-29-hydroxy-23-oxa-1,3,5,9,14,15,25-heptaazahexacyclo[24.4.1.1~6,10~.0~2,7~.0~11,19~.0~12,16~]dotriaconta-2,4,6(32),7,9,11,13,16,18-nonaen-24-one] | 10000 nM | 1000 nM | 3270 nM | –
11 | Cc1cc2[nH]ncc2c2c1CCC[C@@H](F)C(=O)N(C)[C@@H]1CCCN(C1)c1nc(OC[C@@]34CCCN3C[C@H](F)C4)nc3c(F)c-2ncc13 [Example 52, (14R,17R)-14,30-difluoro-24-(((2R,7aS)-2-fluorotetrahydro-1H-pyrrolo[1,2-a]pyrrol-7a(5H)-yl)methoxy)-9,16-dimethyl-5,6,16,21,23,25,29-heptaazahexacyclo[24.3.1.1~17,21~.0~2,10~.0~3,7~.0~22,27~]hentriaconta-1(30),2,4,7,9,22,24,26,28-nonaen-15-one] | 403 nM | 12 nM | 19 nM | –
12 | Cc1cc2[nH]ncc2c2c1CCCn1ncc(n1)C1CCCN(C1)c1nc(OC[C@@]34CCCN3C[C@H](F)C4)nc3c(F)c-2ncc13 (stereo partly drawn) [Example 158, 31-Fluoro-25-(((2R,7aS)-2-fluorotetrahydro-1H-pyrrolo[1,2-a]pyrrol-7a(5H)-yl)methoxy)-9-methyl-5,6,14,15,22,24,26,30,33-nonaazaheptacyclo[25.3.1.1˜14,17˜.1˜18,22.0˜2,10˜.0˜3,7˜.0˜23,28˜]tritriaconta-1(31),2,4,7,9,15,17(33),23,25,27,29-undecaene] | – | 6 nM | 20 nM | 278 nM
13 | O=C1N[C@@H]2CN(C[C@@H]3C[C@@H]32)c2nc(OC[C@@]34CCCN3C[C@H](F)C4)nc3c(F)c(ncc23)-c2c(c(Cl)cc3[nH]ncc23)CCC[C@@H]1F [Example 174, (23S,26S,27S,29R)-18-chloro-23,32-difluoro-4-(((2R,7aS)-2-fluorotetrahydro-1H-pyrrolo[1,2-a]pyrrol-7a(5H)-yl)methoxy)-1,3,5,9,14,15,25-heptaazaheptacyclo[24.4.1.1~6,10~.0~2,7~.0~11,19~.0~12,16~.0~27,29~]dotriaconta-2,4,6,8,10(32), 11,13,16,18-nonaen-24-one] | 53.5 nM | 3 nM | 5 nM | –
14 | Cc1cc2[nH]ncc2c2c1CCOC(=O)OC[C@H]1CN(CCO1)c1nc(OC[C@@]34CCCN3C[C@H](F)C4)nc3c(F)c-2ncc13 [Example 218] | 27.8 nM | 3 nM | 4 nM | –
15 | Fc1c2ncc3c(nc(OC[C@@]45CCCN4C[C@H](F)C5)nc13)N1CCO[C@@H](COCC(F)(F)CCc3c(Cl)cc4[nH]ncc4c3-2)C1 [Example 150, (17R)-9-Chloro-13,13,30-trifluoro-24-(((2R,7aS)-2-fluorotetrahydro-1H-pyrrolo[1,2-a]pyrrol-7a(5H)-yl)methoxy)-15,18-dioxa-5,6,21,23,25,29 hexaazahexacyclo[24.3.1.1˜17,21˜.0˜2,10˜.0˜3,7˜.0˜22,27˜]hentriaconta-1(30),2,4,7,9,22,24,26,28-nonaene] | 306 nM | 17 nM | 33 nM | –
16 | Cc1cc2[nH]ncc2c2c1CCCCC(=O)N(C)[C@@H]1CCCN(C1)c1nc(OC[C@@]34CCCN3C[C@H](F)C4)nc3c(F)c-2ncc13 [Example 50, (17R)-30-fluoro-24-(((2R,7aS)-2-fluorotetrahydro-1H-pyrrolo[1,2-a]pyrrol-7a(5H)-yl)methoxy)-9,16-dimethyl-5,6,16,21,23,25,29-heptaazahexacyclo[24.3.1.1~17,21~.0~2,10~.0~3,7~.0~22,27~]hentriaconta-1(30),2,4,7,9,22,24,26,28-nonaen-15-one] | 169 nM | 4 nM | 7 nM | –
17 | Fc1c2ncc3c(nc(OC[C@@]45CCCN4C[C@H](F)C5)nc13)N1CC(COCCCCc3c(Cl)cc4[nH]ncc4c3-2)CC(F)(F)C1 (stereo partly drawn) [Example 229] | 342 nM | 12 nM | 27 nM | –
